Test [1] has as its target Chromodomain-helicase-DNA-binding protein 4 (Homo sapiens, UniProt Q14839).
The target of test [2] is Ephrin type-A receptor 7 (Homo sapiens, UniProt Q15375).
In test [3] the target is T1, RNA cytidine acetyltransferase (Homo sapiens, UniProt Q9H0A0).
T1 sequence (Q9H0A0 whole entry): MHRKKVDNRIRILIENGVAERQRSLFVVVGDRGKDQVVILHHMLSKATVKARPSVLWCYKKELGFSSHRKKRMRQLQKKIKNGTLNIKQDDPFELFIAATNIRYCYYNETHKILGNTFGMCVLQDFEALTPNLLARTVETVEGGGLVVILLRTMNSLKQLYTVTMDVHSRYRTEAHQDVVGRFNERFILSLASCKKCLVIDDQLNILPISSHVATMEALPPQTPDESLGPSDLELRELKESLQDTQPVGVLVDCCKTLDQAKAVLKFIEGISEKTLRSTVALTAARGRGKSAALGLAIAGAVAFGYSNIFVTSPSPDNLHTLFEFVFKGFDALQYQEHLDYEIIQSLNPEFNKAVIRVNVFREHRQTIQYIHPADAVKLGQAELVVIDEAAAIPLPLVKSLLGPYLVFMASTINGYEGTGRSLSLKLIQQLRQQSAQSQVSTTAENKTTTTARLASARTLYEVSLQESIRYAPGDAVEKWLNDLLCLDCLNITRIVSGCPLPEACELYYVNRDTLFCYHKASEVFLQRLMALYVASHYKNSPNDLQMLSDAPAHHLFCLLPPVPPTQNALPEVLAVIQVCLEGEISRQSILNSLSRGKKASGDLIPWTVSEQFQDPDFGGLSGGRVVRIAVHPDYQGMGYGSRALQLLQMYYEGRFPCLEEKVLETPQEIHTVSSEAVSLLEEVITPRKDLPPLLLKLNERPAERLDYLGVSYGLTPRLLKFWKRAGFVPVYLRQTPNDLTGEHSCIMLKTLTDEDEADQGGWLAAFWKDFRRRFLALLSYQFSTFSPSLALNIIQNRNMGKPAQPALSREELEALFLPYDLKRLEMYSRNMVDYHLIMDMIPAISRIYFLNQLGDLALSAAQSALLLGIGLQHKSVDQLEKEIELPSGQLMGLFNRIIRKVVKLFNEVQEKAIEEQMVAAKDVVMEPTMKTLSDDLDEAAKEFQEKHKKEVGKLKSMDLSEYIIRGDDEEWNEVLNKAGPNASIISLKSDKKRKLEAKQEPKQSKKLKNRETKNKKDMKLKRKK

In test [4] the target is T2, NUAK family SNF1-like kinase 2 (Homo sapiens, UniProt Q9H093).
T2 sequence (Q9H093 whole entry): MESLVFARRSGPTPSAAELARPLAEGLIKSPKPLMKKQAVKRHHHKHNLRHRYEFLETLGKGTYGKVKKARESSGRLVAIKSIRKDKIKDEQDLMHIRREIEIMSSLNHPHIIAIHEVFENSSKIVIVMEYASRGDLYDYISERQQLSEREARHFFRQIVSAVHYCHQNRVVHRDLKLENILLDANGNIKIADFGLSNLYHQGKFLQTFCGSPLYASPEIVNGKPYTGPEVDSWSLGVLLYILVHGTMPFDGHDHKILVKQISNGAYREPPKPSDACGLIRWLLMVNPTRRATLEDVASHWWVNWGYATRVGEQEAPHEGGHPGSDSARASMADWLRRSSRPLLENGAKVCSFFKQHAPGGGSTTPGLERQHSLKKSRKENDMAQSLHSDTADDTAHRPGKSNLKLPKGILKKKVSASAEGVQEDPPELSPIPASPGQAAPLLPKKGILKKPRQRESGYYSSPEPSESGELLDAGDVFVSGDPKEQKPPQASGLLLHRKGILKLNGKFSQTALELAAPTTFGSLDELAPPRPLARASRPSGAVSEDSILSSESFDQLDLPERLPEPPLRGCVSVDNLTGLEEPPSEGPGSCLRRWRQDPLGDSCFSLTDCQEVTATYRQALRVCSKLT

Test [5] deals with Serine/threonine-protein kinase 26 (Homo sapiens, UniProt Q9P289).
Test [6] deals with Insulin receptor (Homo sapiens, UniProt P06213).
In test [7] the target is Dual specificity mitogen-activated protein kinase kinase 2 (Homo sapiens, UniProt P36507).
For test [8], the target named is T3, Serine/threonine-protein kinase TAO1 (Homo sapiens, UniProt Q7L7X3).
T3 sequence (Q7L7X3 whole entry): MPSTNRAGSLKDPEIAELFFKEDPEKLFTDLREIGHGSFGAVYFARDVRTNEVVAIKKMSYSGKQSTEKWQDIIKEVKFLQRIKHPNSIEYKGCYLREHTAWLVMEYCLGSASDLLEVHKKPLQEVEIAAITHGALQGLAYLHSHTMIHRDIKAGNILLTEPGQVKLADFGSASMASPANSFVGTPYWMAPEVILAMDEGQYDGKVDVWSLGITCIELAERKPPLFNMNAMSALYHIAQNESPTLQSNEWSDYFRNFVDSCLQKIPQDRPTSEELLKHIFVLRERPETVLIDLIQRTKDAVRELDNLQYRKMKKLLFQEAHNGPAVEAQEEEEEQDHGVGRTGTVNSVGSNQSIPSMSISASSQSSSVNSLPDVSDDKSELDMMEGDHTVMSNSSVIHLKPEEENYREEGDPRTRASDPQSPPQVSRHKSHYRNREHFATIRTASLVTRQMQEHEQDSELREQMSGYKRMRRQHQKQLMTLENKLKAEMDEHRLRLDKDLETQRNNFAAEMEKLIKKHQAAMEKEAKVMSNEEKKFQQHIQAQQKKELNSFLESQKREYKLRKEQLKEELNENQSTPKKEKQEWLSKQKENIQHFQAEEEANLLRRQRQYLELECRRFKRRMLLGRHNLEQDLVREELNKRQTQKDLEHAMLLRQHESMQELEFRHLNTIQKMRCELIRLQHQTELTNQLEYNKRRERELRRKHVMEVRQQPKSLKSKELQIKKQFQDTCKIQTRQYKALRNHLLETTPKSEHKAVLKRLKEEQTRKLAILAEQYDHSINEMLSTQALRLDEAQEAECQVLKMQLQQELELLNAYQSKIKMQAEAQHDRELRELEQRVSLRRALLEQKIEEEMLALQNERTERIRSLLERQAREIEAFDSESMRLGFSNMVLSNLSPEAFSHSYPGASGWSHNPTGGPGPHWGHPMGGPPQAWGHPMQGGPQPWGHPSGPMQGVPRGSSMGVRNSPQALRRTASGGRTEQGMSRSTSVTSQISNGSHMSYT

Test [9] deals with Ephrin type-A receptor 2 (Homo sapiens, UniProt P29317).
Test [10] addresses MAP/microtubule affinity-regulating kinase 3 (Homo sapiens, UniProt P27448).

Where a name gives a salt, the structure may show the parent alone. Calls of active or inactive are those of the source.

As a reminder, the Kd is a measure of binding affinity in units of concentration.
Note: in the data inactive means no Kd found up to 30 µM.

Chain of Insulin receptor (P06213 28-758 limits assumed): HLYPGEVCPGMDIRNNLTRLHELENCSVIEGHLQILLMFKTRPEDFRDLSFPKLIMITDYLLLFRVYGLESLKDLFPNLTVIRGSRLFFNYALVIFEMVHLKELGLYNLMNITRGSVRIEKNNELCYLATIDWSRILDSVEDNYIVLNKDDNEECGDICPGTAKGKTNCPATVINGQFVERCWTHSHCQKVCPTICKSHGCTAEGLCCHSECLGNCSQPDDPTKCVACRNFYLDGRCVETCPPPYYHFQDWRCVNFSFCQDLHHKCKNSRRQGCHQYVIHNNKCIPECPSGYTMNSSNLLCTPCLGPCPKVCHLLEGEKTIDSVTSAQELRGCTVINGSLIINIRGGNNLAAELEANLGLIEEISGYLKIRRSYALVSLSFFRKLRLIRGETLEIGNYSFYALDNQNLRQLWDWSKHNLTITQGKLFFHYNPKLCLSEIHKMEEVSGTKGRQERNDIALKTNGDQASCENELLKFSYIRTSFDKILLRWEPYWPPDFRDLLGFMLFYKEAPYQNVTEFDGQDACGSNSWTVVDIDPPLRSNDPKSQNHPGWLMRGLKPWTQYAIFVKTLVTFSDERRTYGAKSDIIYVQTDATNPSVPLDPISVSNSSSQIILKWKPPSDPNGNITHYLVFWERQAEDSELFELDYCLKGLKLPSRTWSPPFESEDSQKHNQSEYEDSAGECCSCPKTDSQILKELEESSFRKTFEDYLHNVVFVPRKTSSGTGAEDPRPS
Chain of Insulin receptor (P06213 763-1382 limits assumed): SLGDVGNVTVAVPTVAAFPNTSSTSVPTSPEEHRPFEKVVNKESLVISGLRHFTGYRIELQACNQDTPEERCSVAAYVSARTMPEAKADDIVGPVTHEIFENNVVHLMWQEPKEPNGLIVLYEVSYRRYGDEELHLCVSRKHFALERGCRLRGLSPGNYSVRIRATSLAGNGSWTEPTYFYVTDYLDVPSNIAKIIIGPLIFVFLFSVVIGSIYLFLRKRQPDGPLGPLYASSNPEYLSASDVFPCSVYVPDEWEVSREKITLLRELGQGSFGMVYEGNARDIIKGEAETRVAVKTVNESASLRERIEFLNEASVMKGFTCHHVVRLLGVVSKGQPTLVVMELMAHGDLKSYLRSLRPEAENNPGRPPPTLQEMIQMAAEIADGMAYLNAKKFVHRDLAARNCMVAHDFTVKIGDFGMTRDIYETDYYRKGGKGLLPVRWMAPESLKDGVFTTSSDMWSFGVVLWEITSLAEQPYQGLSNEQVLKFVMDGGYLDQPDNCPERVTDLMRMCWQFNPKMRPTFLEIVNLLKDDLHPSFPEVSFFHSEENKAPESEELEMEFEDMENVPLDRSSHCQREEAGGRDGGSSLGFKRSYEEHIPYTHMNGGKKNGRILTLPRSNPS
Chain of Ephrin type-A receptor 7 (Q15375 whole entry): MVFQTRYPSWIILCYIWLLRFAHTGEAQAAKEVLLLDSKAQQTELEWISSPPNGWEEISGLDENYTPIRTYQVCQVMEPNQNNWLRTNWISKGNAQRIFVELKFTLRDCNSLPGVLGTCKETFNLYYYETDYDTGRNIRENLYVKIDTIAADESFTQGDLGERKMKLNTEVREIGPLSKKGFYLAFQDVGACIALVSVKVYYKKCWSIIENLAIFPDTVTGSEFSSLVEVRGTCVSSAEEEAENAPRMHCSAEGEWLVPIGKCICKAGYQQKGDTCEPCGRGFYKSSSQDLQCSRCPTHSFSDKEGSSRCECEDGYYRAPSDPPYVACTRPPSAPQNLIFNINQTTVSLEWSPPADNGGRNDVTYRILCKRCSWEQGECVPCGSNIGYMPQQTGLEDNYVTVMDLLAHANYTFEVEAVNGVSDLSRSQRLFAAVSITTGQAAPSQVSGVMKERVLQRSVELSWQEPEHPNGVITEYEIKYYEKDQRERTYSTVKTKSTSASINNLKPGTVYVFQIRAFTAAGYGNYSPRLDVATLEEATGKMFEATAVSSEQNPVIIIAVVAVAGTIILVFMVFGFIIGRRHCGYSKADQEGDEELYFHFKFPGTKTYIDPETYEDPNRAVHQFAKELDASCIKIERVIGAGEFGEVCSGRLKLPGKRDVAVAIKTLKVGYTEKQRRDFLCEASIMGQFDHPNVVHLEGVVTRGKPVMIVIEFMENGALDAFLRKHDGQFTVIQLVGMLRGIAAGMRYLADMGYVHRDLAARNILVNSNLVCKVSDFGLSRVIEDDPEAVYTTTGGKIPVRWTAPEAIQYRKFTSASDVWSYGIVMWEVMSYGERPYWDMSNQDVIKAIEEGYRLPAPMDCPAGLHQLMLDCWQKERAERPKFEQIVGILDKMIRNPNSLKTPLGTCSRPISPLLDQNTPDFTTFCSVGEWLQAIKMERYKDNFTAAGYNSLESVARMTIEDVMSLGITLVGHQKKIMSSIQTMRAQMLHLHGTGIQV
Chain of Serine/threonine-protein kinase 26 (Q9P289 whole entry): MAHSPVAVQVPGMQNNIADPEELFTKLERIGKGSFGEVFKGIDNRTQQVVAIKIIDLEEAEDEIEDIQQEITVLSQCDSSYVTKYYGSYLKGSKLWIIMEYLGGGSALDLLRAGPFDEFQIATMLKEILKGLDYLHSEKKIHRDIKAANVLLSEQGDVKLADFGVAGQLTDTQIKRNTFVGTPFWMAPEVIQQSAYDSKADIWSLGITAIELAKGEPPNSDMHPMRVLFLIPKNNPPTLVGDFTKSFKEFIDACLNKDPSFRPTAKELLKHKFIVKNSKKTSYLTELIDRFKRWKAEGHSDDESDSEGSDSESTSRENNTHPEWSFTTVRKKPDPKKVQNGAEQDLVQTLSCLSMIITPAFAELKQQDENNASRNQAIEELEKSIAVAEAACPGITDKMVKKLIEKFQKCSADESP
Chain of Chromodomain-helicase-DNA-binding protein 4 (Q14839 whole entry): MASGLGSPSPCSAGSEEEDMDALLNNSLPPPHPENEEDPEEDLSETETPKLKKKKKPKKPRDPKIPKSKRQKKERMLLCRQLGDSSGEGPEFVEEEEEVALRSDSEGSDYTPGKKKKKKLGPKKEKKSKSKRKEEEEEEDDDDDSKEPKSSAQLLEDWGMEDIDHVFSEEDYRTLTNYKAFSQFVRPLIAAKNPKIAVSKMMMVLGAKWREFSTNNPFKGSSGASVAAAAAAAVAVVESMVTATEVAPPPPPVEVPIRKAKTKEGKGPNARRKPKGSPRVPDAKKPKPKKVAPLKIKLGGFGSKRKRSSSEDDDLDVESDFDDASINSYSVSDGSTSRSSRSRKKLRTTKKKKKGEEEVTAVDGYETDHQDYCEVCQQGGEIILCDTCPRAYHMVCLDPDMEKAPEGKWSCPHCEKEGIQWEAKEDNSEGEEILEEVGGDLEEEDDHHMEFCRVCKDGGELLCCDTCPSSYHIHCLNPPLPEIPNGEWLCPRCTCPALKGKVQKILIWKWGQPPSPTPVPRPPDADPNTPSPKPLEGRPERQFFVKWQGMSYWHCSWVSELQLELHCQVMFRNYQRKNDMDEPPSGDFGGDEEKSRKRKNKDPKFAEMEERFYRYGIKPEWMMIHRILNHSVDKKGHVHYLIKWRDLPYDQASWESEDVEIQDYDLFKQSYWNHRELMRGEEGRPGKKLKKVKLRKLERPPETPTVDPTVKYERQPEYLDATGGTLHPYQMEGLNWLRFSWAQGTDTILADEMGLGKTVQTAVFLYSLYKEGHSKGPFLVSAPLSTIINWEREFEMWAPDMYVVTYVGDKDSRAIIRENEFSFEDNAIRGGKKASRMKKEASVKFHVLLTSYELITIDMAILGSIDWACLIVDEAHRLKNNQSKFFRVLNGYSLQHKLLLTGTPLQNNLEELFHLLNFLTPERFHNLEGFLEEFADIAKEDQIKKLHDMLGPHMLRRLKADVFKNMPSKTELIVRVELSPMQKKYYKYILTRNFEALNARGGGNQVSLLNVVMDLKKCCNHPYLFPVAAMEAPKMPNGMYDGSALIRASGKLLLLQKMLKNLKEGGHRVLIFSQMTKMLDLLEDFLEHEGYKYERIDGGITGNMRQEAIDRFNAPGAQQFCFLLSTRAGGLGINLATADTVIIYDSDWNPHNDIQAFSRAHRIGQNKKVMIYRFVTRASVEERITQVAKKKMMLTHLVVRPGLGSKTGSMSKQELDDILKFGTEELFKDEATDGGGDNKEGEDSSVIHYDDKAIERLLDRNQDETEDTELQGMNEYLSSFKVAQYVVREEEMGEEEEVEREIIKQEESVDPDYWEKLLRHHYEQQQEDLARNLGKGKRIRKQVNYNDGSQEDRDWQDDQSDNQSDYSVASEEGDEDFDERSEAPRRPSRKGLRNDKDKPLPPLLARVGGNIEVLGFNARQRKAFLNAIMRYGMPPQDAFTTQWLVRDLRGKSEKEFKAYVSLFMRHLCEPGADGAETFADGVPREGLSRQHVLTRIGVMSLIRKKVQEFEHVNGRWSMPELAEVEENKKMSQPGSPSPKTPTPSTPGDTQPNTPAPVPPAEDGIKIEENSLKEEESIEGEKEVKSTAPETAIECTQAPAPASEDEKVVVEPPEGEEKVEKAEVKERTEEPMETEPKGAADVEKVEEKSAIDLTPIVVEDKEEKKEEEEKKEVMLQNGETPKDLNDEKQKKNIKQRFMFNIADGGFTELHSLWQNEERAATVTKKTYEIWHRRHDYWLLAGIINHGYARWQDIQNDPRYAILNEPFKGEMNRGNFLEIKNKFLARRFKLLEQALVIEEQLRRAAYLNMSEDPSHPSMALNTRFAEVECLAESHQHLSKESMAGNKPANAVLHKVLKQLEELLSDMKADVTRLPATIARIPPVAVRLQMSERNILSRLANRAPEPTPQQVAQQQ
Chain of Dual specificity mitogen-activated protein kinase kinase 2 (P36507 whole entry): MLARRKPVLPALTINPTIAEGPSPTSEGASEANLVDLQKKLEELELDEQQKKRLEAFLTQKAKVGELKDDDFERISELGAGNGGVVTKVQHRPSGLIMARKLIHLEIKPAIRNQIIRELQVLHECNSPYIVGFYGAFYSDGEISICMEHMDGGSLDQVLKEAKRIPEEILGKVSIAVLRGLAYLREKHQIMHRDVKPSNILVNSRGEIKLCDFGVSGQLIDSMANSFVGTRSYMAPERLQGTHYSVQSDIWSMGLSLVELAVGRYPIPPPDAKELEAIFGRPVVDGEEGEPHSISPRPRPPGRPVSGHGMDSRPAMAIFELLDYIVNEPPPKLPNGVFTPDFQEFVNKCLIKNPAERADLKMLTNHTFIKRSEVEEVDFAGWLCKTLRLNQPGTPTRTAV

Regarding `COc1cc(Nc2ncc3c(n2)-c2ccc(Cl)cc2C(c2c(F)cccc2OC)=NC3)ccc1C(=O)O` [ALISERTIB], the Kd in test [1], in test [2], in test [3], in test [4] and in [5] was > 30 µM (inactive) each time.

Consider `O=C(Nc1c[nH]nc1-c1nc2cc(CN3CCOCC3)ccc2[nH]1)NC1CC1` [AT-9283], for which the Kd in test [1] was > 30 µM (inactive); in test [2], 0.008 µM (active); in test [6] it was > 30 µM (inactive); in test [7], > 30 µM (inactive); in test [3] it was > 30 µM (inactive); in test [4], > 30 µM (inactive). Besides, the Kd is > 30 µM (inactive) in test [5] and 2.22 µM (active) in [8].

In the case of `CNC(=O)c1ccccc1Sc1ccc2c(/C=C/c3ccccn3)n[nH]c2c1` [AXITINIB], the Kd in [1] and in test [3] was > 30 µM (inactive) in each case.

For `NC(=O)Nc1cc(-c2cccc(F)c2)sc1C(=O)N[C@H]1CCCNC1` [AZD-7762], the Kd in [1] is > 30 µM (inactive); in test [9] it was > 30 µM (inactive); in test [2] it was > 30 µM (inactive); in test [6], > 30 µM (inactive); in test [7], 1.22 µM (active); in test [3], > 30 µM (inactive). For the same molecule, the Kd in test [5] and in [8] was > 30 µM (inactive) each time.

As to `Cc1cc(C(=O)NOCCO)c(Nc2ccc(I)cc2F)n(C)c1=O` [AZD-8330], the Kd in [1], in test [9], in test [6], in test [10], in [3] and in test [4] was > 30 µM (inactive) throughout. Also, the Kd in test [5] and in [8] was > 30 µM (inactive) throughout.

For the molecule `CCS(=O)(=O)N1CCN(c2ccc(Nc3ncc(C(N)=O)c(NC4CC4)n3)cc2)CC1` [Cerdulatinib Hydrochloride], the Kd in [1], in test [9], in test [2], in test [6], in test [7] and in test [3] was > 30 µM (inactive) each time. Moreover, the Kd in test [4] is > 30 µM (inactive); in test [5], 0.029 µM; in test [8], 2.17 µM (active).

For `Cn1cc(C2=C(c3cn(C4CCN(Cc5ccccn5)CC4)c4ccccc34)C(=O)NC2=O)c2ccccc21` [ENZASTAURIN], the Kd in test [3] was > 30 µM (inactive).

`C[C@@H](Oc1cc(-n2cnc3ccc(CN4CCN(C)CC4)cc32)sc1C(N)=O)c1ccccc1C(F)(F)F` [GSK-461364]: the Kd in test [1] and in test [3] was > 30 µM (inactive) in each case.

Consider `CCn1cc(-c2ccnc3[nH]c(-c4cccc(CN(C)C)c4)cc23)c(-c2ccc(NC(=O)N(C)C)cc2)n1` [GSK-1070916], for which the Kd in [9], in [2], in test [7], in [3], in [4] and in test [5] was > 30 µM (inactive) throughout.

For the molecule `Cc1[nH]c(/C=C2\C(=O)Nc3ccccc32)c(C)c1CCC(=O)O` [ORANTINIB], the Kd in test [1] is > 30 µM (inactive); in test [2], > 30 µM (inactive); in test [7], 3.23 µM (active); in test [3], 1.24 µM; in test [5] it was > 30 µM (inactive).

As to `NC(=O)c1c(OCc2c(F)cc(Br)cc2F)nsc1NC(=O)NCCCCN1CCCC1` [OSI-632], the Kd in test [1], in test [2], in [3], in [4] and in test [5] was > 30 µM (inactive) throughout.

In the case of `CC(=O)NCC(=O)N1[C@@H]2CC[C@H]1c1ccc(Nc3ncc(C(F)(F)F)c(NC4CCC4)n3)cc12` [PF-03814735], the Kd in test [1] was > 30 µM (inactive); in [2], > 30 µM (inactive); in test [3], > 30 µM (inactive); in test [4], 0.024 µM (active); in [5], > 30 µM (inactive).

In the case of `O=C(NOCCO)c1cc(CN2OCCCC2=O)c(F)c(F)c1Nc1ccc(I)cc1F` [RO-4987655], the Kd in [1] and in test [3] was > 30 µM (inactive) throughout.

As to `N#CC[C@H](C1CCCC1)n1cc(-c2ncnc3[nH]ccc23)cn1` [RUXOLITINIB], the Kd in test [1] and in test [3] was > 30 µM (inactive) each time.

Take `CCS(=O)(=O)c1cccc(-c2cc(C(=O)NC3CCN(C)CC3)c(C)c3[nH]c4ncc(C)cc4c23)c1` [TAK-901]: the Kd is > 30 µM (inactive) in [1]; 0.178 µM (active) in test [9]; 0.615 µM (active) in test [2]; > 30 µM (inactive) in [6]; 3.95 µM (active) in [7]; > 30 µM (inactive) in test [3]. Further, the Kd in [4] is 0.705 µM (active); in test [5], > 30 µM (inactive); in test [8], > 30 µM (inactive).

In the case of `Cn1ncc(Cl)c1-c1cc(C(=O)N[C@H](CN)Cc2ccc(F)c(F)c2)oc1Cl` [UPROSERTIB], the Kd in test [1], in test [9], in [2], in test [6], in [7] and in test [3] was > 30 µM (inactive) throughout. The Kd in test [4] and in [8] was > 30 µM (inactive) each time.
